Laboratory results: PMC6399351, “Cationic Intrinsically Disordered Antimicrobial Peptides (CIDAMPs) Represent a New Paradigm of Innate Defense with a Potential for Novel Anti-Infectives” (Scientific Reports, 2019)
Like-named read-outs stand apart in the source and are kept apart here. Square brackets hold non-standard residues; d marks the D form. Ends that are not written are not given here. Peptide text beside a SMILES is read from it.

What was measured:
P. aeruginosa ATCC 10145 = conditions: CFU assay, 10 mM NaP
S. aureus ATCC 6538 = conditions: CFU assay, 10 mM NaP, pH 5.5, 0.25% glucose

Molecule | LD90 (P. aeruginosa ATCC 10145; pH 5.5, 0.25% glucose) | LD100 (P. aeruginosa ATCC 10145; pH 5.5, 0.25% glucose) | LD100 (P. aeruginosa ATCC 10145; pH 5.5, 1% TSB) | LD90 (P. aeruginosa ATCC 10145; pH 5.5, 1% TSB) | also measured
CC(C)C[C@@H](NC(=O)CNC(=O)[C@@H](CO)NC(=O)CNC(=O)[C@@H](Cc1c[nH]cn1)NC(=O)[C@@H](CCCNC(=N)N)NC(=O)CN)C(=O)NCC(=O)N[C@H](Cc1c[nH]cn1)C(=O)N[C@H](CO)C(=O)N[C@H](CO)C(=O)N[C@H](CO)C(=O)N[C@H](Cc1c[nH]cn1)C(=O)NCC(=O)N[C@H](CCC(N)=O)C(=O)N[C@H](Cc1c[nH]cn1)C(=O)NCC(=O)N[C@H](CO)C(=O)NCC(=O)N[C@H](CO)C(=O)NCC(=O)N[C@H](CCCNC(=N)N)C(=O)O [(D)HR 1-18] (H-G[dR][dH]G[dS]G[dL]G[dH][dS][dS][dS][dH]G[dQ][dH]G[dS]G[dS]G[dR]-OH; N-terminus and C-terminus assumed) | 0.038 µg/mL | 0.3 µg/mL | – | – | –
N=C(N)NCCC[C@H](NC(=O)[C@H](CC(=O)O)NC(=O)[C@H](CS)NC(=O)[C@H](CO)NC(=O)[C@H](CC(N)=O)NC(=O)[C@H](CO)NC(=O)[C@H](CCCNC(=N)N)NC(=O)[C@H](CCC(N)=O)NC(=O)[C@H](CCCNC(=N)N)NC(=O)[C@H](CCCNC(=N)N)NC(=O)[C@H](CS)NC(=O)[C@H](CCC(N)=O)NC(=O)[C@H](Cc1c[nH]cn1)NC(=O)[C@H](CO)NC(=O)[C@H](CCCNC(=N)N)NC(=O)[C@H](Cc1ccccc1)NC(=O)[C@H](Cc1c[nH]cn1)NC(=O)[C@H](CCCNC(=N)N)NC(=O)[C@H](Cc1c[nH]cn1)NC(=O)[C@H](Cc1c[nH]cn1)NC(=O)[C@@H](N)CO)C(=O)O [LCE-3C55-75] (H-SHHRHFRSHQCRRQRSNSCDR-OH; N-terminus and C-terminus assumed) | – | – | – | – | LD90 (S. aureus ATCC 6538): 0.59 µg/mL; LD100 (S. aureus ATCC 6538): > 150 µg/mL
GGHGSGLGHSSSHGQHGSGSGRSSSRGPY [HR 1-17R1-G] | 0.038 µg/mL | 0.3 µg/mL | – | – | –
GRGGSGLGGSSSGGQGGSGSGRSSSRGPY [HR 1-174H-4G] | 75 µg/mL | > 300 µg/mL | – | – | –
GRHGGGGGHGGGHGGHGGGGGR [HR 1-18,L-G/Q-G/6S-6G] | – | 0.15 µg/mL | – | – | –
GRHGSGGGHSSSHGGHGSGSGR [HR 1-18,L-G/Q-G] | – | 0.15 µg/mL | – | – | –
GRHGSGLGHSSSH [HR 1-37] | 9.38 µg/mL | > 300 µg/mL | – | – | –
GRHGSGLGHSSSHGQH [HR 1-25] | 0.3 µg/mL | 4.7 µg/mL | – | – | –
GRHGSGLGHSSSHGQHGSGSGGSSSRGPY [HR 1-17R2-G] | 0.038 µg/mL | 0.15 µg/mL | – | – | –
GRHGSGLGHSSSHGQHGSGSGRSSSGGPY [HR 1-17R3-G] | 0.038 µg/mL | 0.15 to 0.3 µg/mL | – | – | –
GRHGSGSGHSSSHGQHGSGSGR [HRNR2186-2207] | – | 4.7 to 9.37 µg/mL | – | – | –
GRHGSGSGQSSSYGPYGSGSGWSSSRGPY [HRNR1952-1980] | – | – | > 300 µg/mL | – | –
GRHGSGSGQSSSYGPYRSGSGWSSSRGPY [HRNR1013-1041] | – | – | > 300 µg/mL | – | –
GRHGSGSGQSSSYSPYGSGSGWSSSR [HRNR2422-2447] | – | – | > 300 µg/mL | – | –
GRHGSGSGQSSSYSPYGSGSGWSSSRGPY [HRNR2422-2450] | – | – | > 300 µg/mL | 2.35 µg/mL | –
GSGSRQSLSYGRHGSGSGR [HR 2-4L] | – | – | > 300 µg/mL | 75 µg/mL | –
GSGSRQSPSHGRHGSGSGR [HR 2-4H] | – | – | > 300 µg/mL | 75 µg/mL | –
GSGSRQSPSRGRHGSGSGR [HR 2-4R] | – | – | > 300 µg/mL | – | –
GSGSRQSPSY [HR 2-2] | – | – | > 300 µg/mL | > 300 µg/mL | –
GSGSRQSPSYGR [HR 2-8] | – | – | > 300 µg/mL | 37.5 µg/mL | –
GSGSRQSPSYGRHGSGSGR [HR 2-4] | – | – | > 300 µg/mL | > 300 µg/mL | –

Molecule | LD90 (P. aeruginosa ATCC 10145; pH 5.5, 0.25% glucose) | LD100 (P. aeruginosa ATCC 10145; pH 5.5, 0.25% glucose) | LD100 (P. aeruginosa ATCC 10145; pH 5.5, 1% TSB) | LD90 (P. aeruginosa ATCC 10145; pH 5.5, 1% TSB) | also measured
GSGSRQSPSYGRHGSGSGRSSSSGQH [HR 2-11] | – | – | > 300 µg/mL | 37.5 µg/mL | –
GSGSRQSPSYGRQGSGSGR [HR 2-4Q] | – | – | > 300 µg/mL | > 300 µg/mL | –
GSGSRQSSGHGRQGSGSGQ [HR 1-16] | – | – | > 300 µg/mL | > 300 µg/mL | –
GSGSRQSSSYGRHGSGSGR [HR 2-4S] | – | – | > 300 µg/mL | 150 µg/mL | –
GSRQSPSYGRHGSGSGR [HR 2-12] | – | – | > 300 µg/mL | > 300 µg/mL | –
GSRTAGRRGSGH [FLG-22094-2105] | – | > 300 µg/mL | – | – | –
HAHSGHGQSTQR [FLG-22082-2093] | 0.15 µg/mL | 2.35 µg/mL | – | – | –
HAHSGHGQSTQRGSR [FLG-22082-2096] | 0.15 µg/mL | 1.18 µg/mL | – | – | –
HAHSGHGQSTQRGSRTAGRRGSGH [FLG-22082-2105] | < 0.038 µg/mL | 0.075 µg/mL | – | – | –
HAHYGYGQSTQRGSRTTGRRGSGH [FLG-22232-2255] | 0.075 µg/mL | 0.59 µg/mL | – | – | –
HGQSTQRGSRTAGRRGSGH [FLG-22087-2105] | 0.075 µg/mL | 1.18 µg/mL | – | – | –
HGSGLGHSSSHGQHGSGSGR [HR 1-8] | 4.7 µg/mL | > 300 µg/mL | > 300 µg/mL | – | –
HGSGSGR [HR 2-9] | – | – | > 300 µg/mL | > 300 µg/mL | –
HGSRSGQSSRGERHGSSSGSSSH [HR 1-11] | 0.075 µg/mL | – | – | – | –
HGSSSGSSSHYGQHGSGSR [HR 1-4] | – | – | > 300 µg/mL | 150 µg/mL | –
HSQRGSGSRQSPSYGRH [HR 2-16] | – | 37.5 µg/mL | – | – | –
HSSSHGQHGSGSGR [HR 1-38] | – | > 300 µg/mL | – | – | –
HTHSGHAHGQAGSQHGESGSSVHER [FLG-22044-2068] | 0.038 µg/mL | 0.3 µg/mL | – | – | –
HTHSGHTHGQAGSHYPESGSSVHER [FLG-21969-1993] | 0.038 µg/mL | 0.3 µg/mL | – | – | –
HTHSGHTHGQARSQHGESESIVHER [FLG-21742-1766] | 0.038 µg/mL | 0.15 µg/mL | – | – | –
HTHSGHTHGQSGSQHGESESIIHDR [FLG-21515-1539] | 0.075 µg/mL | 0.59 µg/mL | – | – | –

Molecule | LD90 (P. aeruginosa ATCC 10145; pH 5.5, 0.25% glucose) | LD100 (P. aeruginosa ATCC 10145; pH 5.5, 0.25% glucose) | LD100 (P. aeruginosa ATCC 10145; pH 5.5, 1% TSB) | LD90 (P. aeruginosa ATCC 10145; pH 5.5, 1% TSB) | also measured
HTHSGHTHSQARSQHGESESTVHKR [FLG-21894-1918] | 0.038 µg/mL | 0.3 µg/mL | – | – | –
LGHSSSHGQHGSGSGRSSSRGPYESRLGH [HR 1-36] | 0.15 µg/mL | 2.35 µg/mL | – | – | –
QGSGSGQSPGHSQRGSGSRQSPSY [HR 2-1] | – | – | > 300 µg/mL | > 300 µg/mL | –
QGSGSGQSPSR [HR 1-6] | – | – | > 300 µg/mL | > 300 µg/mL | –
QGSGSGQSPSRGR [HR 1-7] | – | – | > 300 µg/mL | > 300 µg/mL | –
QSPSY [HR 2-3] | – | – | > 300 µg/mL | > 300 µg/mL | –
QSPSYGR [HR 2-6] | – | – | > 300 µg/mL | > 300 µg/mL | –
QSPSYGRHGSGSGR [HR 2-5] | – | – | > 300 µg/mL | > 300 µg/mL | –
QSSGHGR [HR 1-5] | – | – | > 300 µg/mL | > 300 µg/mL | –
RGSGSGHQGHSSSHGLGSGHRG [rev-HR 1-18] | < 0.019 µg/mL | 0.3 µg/mL | – | – | –
RQSPSYGRHGSGSGR [HR 2-14] | – | – | > 300 µg/mL | 300 µg/mL | –
SGQSSR [HR 1-2] | – | – | > 300 µg/mL | > 300 µg/mL | –
SGQSSRGER [HR 1-3] | – | – | > 300 µg/mL | > 300 µg/mL | –
SLSSGHGSGHGHQRGGHRSGSG [scr-HR 1-18] | < 0.019 µg/mL | 0.15 µg/mL | – | – | –
SQHGSGSGHSSGYGQHGSR [HR 1-1] | – | – | > 300 µg/mL | > 300 µg/mL | –
SRQSPSYGRHGSGR [HR 2-15] | – | – | > 300 µg/mL | 75 µg/mL | –
SRQSPSYGRHGSGSGR [HR 2-13] | – | – | > 300 µg/mL | > 300 µg/mL | –
SSSRGPY [HR 1-10] | – | – | > 300 µg/mL | > 300 µg/mL | –
SSSSR [HR 1-9] | – | – | > 300 µg/mL | – | –
TAGRRGSGH [FLG-22097-2105] | > 300 µg/mL | > 300 µg/mL | – | – | –
THEHEQSHQRRDRQTHEDKQNRQR [RPTN747-770] | 0.3 µg/mL | 150 µg/mL | – | – | –
